Test results published in PubChem BioAssay AID2060891 (Molecular Pharmacology Branch, DTP, NCI, 2025).

System: K98450-129-R-PDC complex spheroid growth, percent test/control
Test: Anticancer human tumor K98450-129-R-PDC patient-derived colon adenocarcinoma cell line growth inhibition [RAS]
Conditions: for IC50: curve of first compound; for viability, T/C: stronger effect = lower value
Summary of the method: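 Agents were tested in combination matrices in half-log decrements from a top concentration at or near clinical Cmax (10 microM if undetermined). Targets were multi-cell spheroids of tumour lines plus HUVEC and MSC stromal cells.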

[1] = second compound 0.000949 µM, first compound 0.0316 µM
[2] = second compound 0.000949 µM, first compound 0.1 µM
[3] = second compound 0.000949 µM, first compound 0.316 µM
[4] = second compound 0.000949 µM, first compound 1 µM
[5] = second compound 0.003 µM, first compound 0.0316 µM
[6] = second compound 0.003 µM, first compound 0.1 µM
[7] = second compound 0.003 µM, first compound 0.316 µM
[8] = second compound 0.003 µM, first compound 1 µM
[9] = second compound 0.00949 µM, first compound 0.0316 µM
[10] = second compound 0.00949 µM, first compound 0.1 µM
[11] = second compound 0.00949 µM, first compound 0.316 µM
[12] = second compound 0.00949 µM, first compound 1 µM
[13] = second compound 0.03 µM, first compound 0.0316 µM
[14] = second compound 0.03 µM, first compound 0.1 µM
[15] = second compound 0.03 µM, first compound 0.316 µM
[16] = second compound 0.03 µM, first compound 1 µM
[17] = second compound 0.0949 µM, first compound 0.0316 µM
[18] = second compound 0.0949 µM, first compound 0.1 µM
[19] = second compound 0.0949 µM, first compound 0.316 µM
[20] = second compound 0.0949 µM, first compound 1 µM
[21] = second compound 0.3 µM, first compound 0.0316 µM
[22] = second compound 0.3 µM, first compound 0.1 µM
[23] = second compound 0.3 µM, first compound 0.316 µM
[24] = second compound 0.3 µM, first compound 1 µM
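Further: spheroids exposed to agents for seven days before the viability readout.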
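Wherever viability, T/C is given: luminescence used as a proxy for viable cell amount.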

Molecule `CC(=O)OC12COC1CC(O)C1(C)C(=O)C(O)C3=C(C)C(OC(=O)C(O)C(NC(=O)OC(C)(C)C)c4ccccc4)CC(O)(C(OC(=O)c4ccccc4)C21)C3(C)C` (stereo unspecified) + CCn1c(-c2cccnc2C(C)OC)c2c3cc(ccc31)N1CCOC(CC(NC(=O)C(C(C)C)N(C)C(=O)C3(F)CCN(C(=O)C#CC(C)(C)N(C)C)CC3)C(=O)N3CCCC(N3)C(=O)OCC(C)(C)C2)C1 has an IC50 (second compound 0.000949 µM) of 190 nM, an IC50 (second compound 0.003 µM) of 43.1 nM and an IC50 (second compound 0.00949 µM) of under 31.6 nM. The IC50 (second compound 0.03 µM) was under 31.6 nM, the IC50 (second compound 0.0949 µM) was under 31.6 nM and the IC50 (second compound 0.3 µM) was under 31.6 nM. The viability, T/C [1] was 69.7%, the viability, T/C [2] was 66.1% and the viability, T/C [3] was 37.2%. It also gave a viability, T/C [4] of 24.6%, a viability, T/C (second compound 0.000949 µM, first compound 3.16 µM) of 25.8% and a viability, T/C (second compound 0.000949 µM, first compound 10 µM) of 24.8%. The viability, T/C [5] was 52.4%, the viability, T/C [6] was 43.6% and the viability, T/C [7] was 23.8%. The viability, T/C [8] was 19.7%, the viability, T/C (second compound 0.003 µM, first compound 3.16 µM) was 21.4% and the viability, T/C (second compound 0.003 µM, first compound 10 µM) was 20.1%. It also gave a viability, T/C [9] of 40.6%, a viability, T/C [10] of 25.5% and a viability, T/C [11] of 19.9%. It also gave a viability, T/C [12] of 18.7%, a viability, T/C (second compound 0.00949 µM, first compound 3.16 µM) of 19.5% and a viability, T/C (second compound 0.00949 µM, first compound 10 µM) of 18.1%. It also gave a viability, T/C [13] of 30.9%, a viability, T/C [14] of 28.2% and a viability, T/C [15] of 19.2%. It also gave a viability, T/C [16] of 17.7%, a viability, T/C (second compound 0.03 µM, first compound 3.16 µM) of 19.7% and a viability, T/C (second compound 0.03 µM, first compound 10 µM) of 20.4%. For the same molecule, the viability, T/C [17] was 29.6%, the viability, T/C [18] was 26.9% and the viability, T/C [19] was 18.9%. For the same molecule, the viability, T/C [20] was 19%, the viability, T/C (second compound 0.0949 µM, first compound 3.16 µM) was 18.8% and the viability, T/C (second compound 0.0949 µM, first compound 10 µM) was 18.4%. The viability, T/C [21] was 29.5%, the viability, T/C [22] was 22.7% and the viability, T/C [23] was 19.1%. The viability, T/C [24] was 16.3%, the viability, T/C (second compound 0.3 µM, first compound 3.16 µM) was 16.9% and the viability, T/C (second compound 0.3 µM, first compound 10 µM) was 18.6%.
`CCc1c2c(nc3ccc(O)cc13)-c1cc3c(c(=O)n1C2)COC(=O)[C@]3(O)CC` + CCn1c(-c2cccnc2C(C)OC)c2c3cc(ccc31)N1CCOC(CC(NC(=O)C(C(C)C)N(C)C(=O)C3(F)CCN(C(=O)C#CC(C)(C)N(C)C)CC3)C(=O)N3CCCC(N3)C(=O)OCC(C)(C)C2)C1 gave an IC50 (second compound 0.000949 µM) of 16.9 nM, an IC50 (second compound 0.003 µM) of 2.54 nM and an IC50 (second compound 0.00949 µM) of under 0.949 nM. The IC50 (second compound 0.03 µM) was under 0.949 nM, the IC50 (second compound 0.0949 µM) was under 0.949 nM and the IC50 (second compound 0.3 µM) was under 0.949 nM. The viability, T/C (second compound 0.000949 µM, first compound 0.000949 µM) was 71.1%, the viability, T/C (second compound 0.000949 µM, first compound 0.003 µM) was 64.6% and the viability, T/C (second compound 0.000949 µM, first compound 0.00949 µM) was 60.9%. For the same molecule, the viability, T/C (second compound 0.000949 µM, first compound 0.03 µM) was 39.8%, the viability, T/C (second compound 0.000949 µM, first compound 0.0949 µM) was 30.2% and the viability, T/C (second compound 0.000949 µM, first compound 0.3 µM) was 25.4%. The viability, T/C (second compound 0.003 µM, first compound 0.000949 µM) was 58.1%, the viability, T/C (second compound 0.003 µM, first compound 0.003 µM) was 48.9% and the viability, T/C (second compound 0.003 µM, first compound 0.00949 µM) was 38.9%. For the same molecule, the viability, T/C (second compound 0.003 µM, first compound 0.03 µM) was 30.9%, the viability, T/C (second compound 0.003 µM, first compound 0.0949 µM) was 24.3% and the viability, T/C (second compound 0.003 µM, first compound 0.3 µM) was 15.8%. It also gave a viability, T/C (second compound 0.00949 µM, first compound 0.000949 µM) of 44.3%, a viability, T/C (second compound 0.00949 µM, first compound 0.003 µM) of 36.2% and a viability, T/C (second compound 0.00949 µM, first compound 0.00949 µM) of 32.8%. The viability, T/C (second compound 0.00949 µM, first compound 0.03 µM) was 22.7%, the viability, T/C (second compound 0.00949 µM, first compound 0.0949 µM) was 16.9% and the viability, T/C (second compound 0.00949 µM, first compound 0.3 µM) was 14%. The viability, T/C (second compound 0.03 µM, first compound 0.000949 µM) was 32.8%, the viability, T/C (second compound 0.03 µM, first compound 0.003 µM) was 40.1% and the viability, T/C (second compound 0.03 µM, first compound 0.00949 µM) was 25.6%. The viability, T/C (second compound 0.03 µM, first compound 0.03 µM) was 24.7%, the viability, T/C (second compound 0.03 µM, first compound 0.0949 µM) was 19.5% and the viability, T/C (second compound 0.03 µM, first compound 0.3 µM) was 11.6%. For the same molecule, the viability, T/C (second compound 0.0949 µM, first compound 0.000949 µM) was 35.1%, the viability, T/C (second compound 0.0949 µM, first compound 0.003 µM) was 33.8% and the viability, T/C (second compound 0.0949 µM, first compound 0.00949 µM) was 27.9%. The viability, T/C (second compound 0.0949 µM, first compound 0.03 µM) was 22.3%, the viability, T/C (second compound 0.0949 µM, first compound 0.0949 µM) was 20% and the viability, T/C (second compound 0.0949 µM, first compound 0.3 µM) was 11.5%. The viability, T/C (second compound 0.3 µM, first compound 0.000949 µM) was 36%, the viability, T/C (second compound 0.3 µM, first compound 0.003 µM) was 32.7% and the viability, T/C (second compound 0.3 µM, first compound 0.00949 µM) was 28.5%. It also gave a viability, T/C (second compound 0.3 µM, first compound 0.03 µM) of 18.3%, a viability, T/C (second compound 0.3 µM, first compound 0.0949 µM) of 15.4% and a viability, T/C (second compound 0.3 µM, first compound 0.3 µM) of 10.7%.
Molecule `Nc1ccn(C2OC(CO)C(O)C2(F)F)c(=O)n1` (stereo unspecified) + CCn1c(-c2cccnc2C(C)OC)c2c3cc(ccc31)N1CCOC(CC(NC(=O)C(C(C)C)N(C)C(=O)C3(F)CCN(C(=O)C#CC(C)(C)N(C)C)CC3)C(=O)N3CCCC(N3)C(=O)OCC(C)(C)C2)C1 has an IC50 (second compound 0.000949 µM) of 18.4 nM, an IC50 (second compound 0.003 µM) of 9.33 nM and an IC50 (second compound 0.00949 µM) of under 3.16 nM. For the same molecule, the IC50 (second compound 0.03 µM) was under 3.16 nM, the IC50 (second compound 0.0949 µM) was under 3.16 nM and the IC50 (second compound 0.3 µM) was under 3.16 nM. It also gave a viability, T/C (second compound 0.000949 µM, first compound 0.00316 µM) of 73.8%, a viability, T/C (second compound 0.000949 µM, first compound 0.01 µM) of 43% and a viability, T/C [1] of 51.7%. For the same molecule, the viability, T/C [2] was 39.8%, the viability, T/C [3] was 32.4% and the viability, T/C [4] was 25.3%. For the same molecule, the viability, T/C (second compound 0.003 µM, first compound 0.00316 µM) was 65.6%, the viability, T/C (second compound 0.003 µM, first compound 0.01 µM) was 43.6% and the viability, T/C [5] was 42.4%. The viability, T/C [6] was 26.9%, the viability, T/C [7] was 24.5% and the viability, T/C [8] was 17%. For the same molecule, the viability, T/C (second compound 0.00949 µM, first compound 0.00316 µM) was 49.1%, the viability, T/C (second compound 0.00949 µM, first compound 0.01 µM) was 38.4% and the viability, T/C [9] was 29.8%. It also gave a viability, T/C [10] of 21.9%, a viability, T/C [11] of 19.9% and a viability, T/C [12] of 18.1%. It also gave a viability, T/C (second compound 0.03 µM, first compound 0.00316 µM) of 39%, a viability, T/C (second compound 0.03 µM, first compound 0.01 µM) of 34.8% and a viability, T/C [13] of 26.4%. The viability, T/C [14] was 20.7%, the viability, T/C [15] was 20.6% and the viability, T/C [16] was 17.3%. The viability, T/C (second compound 0.0949 µM, first compound 0.00316 µM) was 32.4%, the viability, T/C (second compound 0.0949 µM, first compound 0.01 µM) was 37.1% and the viability, T/C [17] was 25.7%. For the same molecule, the viability, T/C [18] was 21.2%, the viability, T/C [19] was 20.8% and the viability, T/C [20] was 16.8%. For the same molecule, the viability, T/C (second compound 0.3 µM, first compound 0.00316 µM) was 33.5%, the viability, T/C (second compound 0.3 µM, first compound 0.01 µM) was 32.1% and the viability, T/C [21] was 26.6%. The viability, T/C [22] was 19.1%, the viability, T/C [23] was 19.5% and the viability, T/C [24] was 15.6%.
